Experimental data as given in patent US9642854B2, “Flavanoid compounds and process for preparation thereof” (Council of Scientific & Industrial Research, priority 2009, dated 2017).
≈ marks a conversion by molar mass, not a printed value.

Assays:
Type in all cases: cell-based, Helicobacter pylori
H. pylori [1] = experiment: Anti H. pylori screening by disc diffusion susceptibility assay; conditions: for Inhibition Zone Diameter (mm): spacer molecules
Experimental: The discs were impregnated with […] of each of the compounds, dissolved either in ethanol or DMSO, and the zone of inhibition was measured after 72 h of growth under microaerophilic conditions at 37° C. Inhibition zone diameter ranging 10-20 mm was given a score of ^+, 20-30 mm as ^++ and that of >30 mm as ^+++, as obtained employing dose range of […]/disc. The detailed structural information of the molecules is provided under ‘Description of the Compounds’.
Methods and protocols for the determination of inhibition zone diameter are as stated under Experiment 1, and that of MIC values by microbroth dilution assay as in Experiment 3. ‘Nil’ means zone of inhibition below 10 mm.
The anti H. pylori activity of all 16 flavonoid molecules, 2 naturally isolated and 14 synthetic derivatives, was screened by disc diffusion sensitivity assay employing 2 clinical strains HP001 and HP002, and three standard strains ATCC® 700392, 43504 and 49503. A 0.5 mL inoculum (10^8 CFU/mL) for each bacterial strain tested was flooded on freshly prepared Brain Heart Infusion (BHI) agar plates supplemented with 7% FCS, 0.5% IsoVitalex and 0.0025% DENT® and the discs (5 mm diameter) containing different compounds or antibiotics (dissolved either in ethanol or DMSO) were placed on the agar surface. After incubation for 3 days in a microaerophilic atmosphere at 37° C., the diameter of the zone of inhibition was measured (Glupczynsky, 1996; McNulty et al., 2002).

H. pylori [2] = experiment: MIC and MBC by microbroth dilution assay; conditions: Helicobacter pylori
Experimental: The compounds, serially diluted ([…]) in Muller Hinton broth containing 5% FCS, were incubated in 96-well microtitre plate containing fresh cultures of HP001 (˜5.5×10^6 CFU/mL) or ATCC® 43504 (2.65×10^6 CFU/ml) in a final volume of […]. After 72-h of incubation under microaerophilic condition at 37° C., […] of cultures wherein no growth had been detected were streaked on fresh brain heart infusion agar plates for MBC determination.
In microbroth dilution assay employing one clinical and one standard strain, both the bacteriostatic and the bactericidal values were determined for all four compounds as well as for clarithromycin (Table 4). Two-fold serial dilutions were prepared in 96-well microtitre plate containing a total volume of 0.1 mL Mueller Hinton broth supplemented with 5% FCS. A 3-day old liquid culture was diluted 10 times in Mueller Hinton broth and 0.1 mL of these cultures was inoculated into each well to give a final concentration of ˜10^6 CFU/mL. The plates were incubated for 3 days in a microaerophilic atmosphere at 37° C. Following incubation, the plates were examined visually, and the lowest concentration showing complete inhibition of growth was recorded as the MIC of the respective compound (Hachem et al., 1996). Aliquots (0.1 mL) of 72-h culture in which no growth had been detected were taken from the wells of the above microtitre plates and used to streak on fresh BHI agar plates.

H. pylori [3] = experiment: Time kill kinetic analyses in biphasic culture; conditions: HP001
H. pylori [4] = experiment: Anti H. pylori spectrum (MIC) by agar dilution method; conditions: Helicobacter pylori
Experimental: MIC was determined using agar dilution assay following the CLSI® guidelines. Six clinical isolates and four standard strains were used for this study. Five microlitre of freshly grown 3-day old culture (˜1×10^8 CFU/mL) was streaked in plates containing 2-fold serial dilution of the compounds ranging […], and incubated under microaerophilic condition at 37° C. After 72 h, the plates were inspected visually for absence of growth to assess the MIC values. The experiment was performed in duplicates. MIC50 is defined as the dose (μg/ml) required for killing 50% of the strains.
Plates contained two-fold serial dilutions of the compounds ranging from […]. Five microlitres of 3-day old freshly grown H. pylori culture (^˜10^8 CFU/mL) was inoculated onto drug-containing BHI agar plates supplemented with 7% FCS, 0.5% IsoVitalex and 0.0025% DENT®, which were then incubated for 3 days under microaerophilic condition at 37° C.

[5] = ATCC43504, microbroth dilution, ATCC 43504

`CC[C@H]1OC(=O)[C@H](C)[C@@H](O[C@H]2C[C@@](C)(OC)[C@@H](O)[C@H](C)O2)[C@H](C)[C@@H](O[C@@H]2O[C@H](C)C[C@H](N(C)C)[C@H]2O)[C@](C)(OC)C[C@@H](C)C(=O)[C@H](C)[C@@H](O)[C@]1(C)O` [Clarithromycin, reference compound] showed an inhibition zone (H. pylori [1]; strain 43504, 0.04 mg/disc) of 20 mm, an inhibition zone (H. pylori [1]; strain 49503, 0.005 mg/disc) of 15 mm and an inhibition zone (H. pylori [1]; strain 700392, 0.4 mg/disc) of 28 mm. It also gave an inhibition zone (H. pylori [1]; strains HP001 and HP002, 0.01 mg/disc) of 18 mm, an MBC (H. pylori [2]; [5]) of 0.08 µg/mL (≈ 0.107 µM) and an MIC (H. pylori [2]; [5]) of 0.04 µg/mL (≈ 0.0535 µM). The MBC (H. pylori [2]; microbroth dilution, HP001) was 0.04 µg/mL (≈ 0.0535 µM), the MIC (H. pylori [2]; microbroth dilution, HP001) was 0.01 µg/mL (≈ 0.0134 µM) and the “decrease in cell count” value (H. pylori [3]; at around 9 h) was 1 log. The “time at which killing/inhibition became evident” value (H. pylori [3]; biphasic culture) was “around 9 h”, the MIC (H. pylori [4]; 72 h, panel of 6 clinical isolates and 4 standard strains, read-out: MIC Range) was 0.016 to 0.1 µg/mL (≈ 0.0214 to 0.134 µM) and the MIC50 (H. pylori [4]; MIC against 50% of the strains of the panel, read-out: MIC50) was 0.032 µg/mL (≈ 0.0428 µM). The MIC (H. pylori [4]; clinical strain HP001, read-out: MIC) was 0.016 µg/mL (≈ 0.0214 µM), the MIC (H. pylori [4]; clinical strain HP002, read-out: MIC) was 0.032 µg/mL (≈ 0.0428 µM) and the MIC (H. pylori [4]; clinical strain HP003, read-out: MIC) was < 0.02 µg/mL. For the same compound, the MIC (H. pylori [4]; clinical strain HP004, read-out: MIC) was 0.04 µg/mL (≈ 0.0535 µM), the MIC (H. pylori [4]; clinical strain HP005, read-out: MIC) was 0.08 µg/mL (≈ 0.107 µM) and the MIC (H. pylori [4]; clinical strain HP006, read-out: MIC) was 0.08 µg/mL (≈ 0.107 µM). The MIC (H. pylori [4]; standard strain 43504, read-out: MIC) was 0.032 µg/mL (≈ 0.0428 µM), the MIC (H. pylori [4]; standard strain 43629, read-out: MIC) was 0.1 µg/mL (≈ 0.134 µM) and the MIC (H. pylori [4]; standard strain 49503, read-out: MIC) was 0.016 µg/mL (≈ 0.0214 µM). The MIC (H. pylori [4]; standard strain 700392, read-out: MIC) was 0.064 µg/mL (≈ 0.0856 µM).
With `CCCN1CCOCC1` [reference compound] the “Inhibition Zone Diameter (mm)” value (H. pylori [1]; ATCC 43504) was “Nil (‘Nil’ means zone of inhibition below 10 mm.)”, the “Inhibition Zone Diameter (mm)” value (H. pylori [1]; HP001) was “Nil (‘Nil’ means zone of inhibition below 10 mm.)” and the MIC (H. pylori [2]; [5]) was > 400 µg/mL. For the same compound, the MIC (H. pylori [2]; microbroth dilution, HP001) was > 400 µg/mL.
With `CCCN1CCN(C)CC1` [reference compound] the “Inhibition Zone Diameter (mm)” value (H. pylori [1]; ATCC 43504) was “Nil (‘Nil’ means zone of inhibition below 10 mm.)”, the “Inhibition Zone Diameter (mm)” value (H. pylori [1]; HP001) was “Nil (‘Nil’ means zone of inhibition below 10 mm.)” and the MIC (H. pylori [2]; [5]) was > 400 µg/mL. The MIC (H. pylori [2]; microbroth dilution, HP001) was > 400 µg/mL.
For `CCCOc1ccc2c(=O)cc(-c3ccccc3)oc2c1` [reference compound], the “Inhibition Zone Diameter (mm)” value (H. pylori [1]; ATCC 43504) was “Nil (‘Nil’ means zone of inhibition below 10 mm.)”, the “Inhibition Zone Diameter (mm)” value (H. pylori [1]; HP001) was “Nil (‘Nil’ means zone of inhibition below 10 mm.)” and the MIC (H. pylori [2]; [5]) was > 400 µg/mL. The MIC (H. pylori [2]; microbroth dilution, HP001) was > 400 µg/mL.
